One assay deals with DLD-1 cells. Kind of assay: Inhibition of proliferation, DLD-1 BRCA2 wt control (Cell Titre Glo 3D). The class given is cell-based. As to conditions: Homo sapiens. In a few lines:
(§1)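 Wild-type DLD-1 serves as the control for non-specific toxicity, and BRCA2-null DLD-1 as the homologous-recombination-deficient line. Both grew with compound from 10 μM down to 0.51 nM, re-dosed after 6 days. Luminescent ATP content (CellTiter-Glo 3D) was read after 7 or 12 days, respectively, to give IC50 values.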

A further assay relates to DLD-1 BRCA2−/− cells. Kind of assay: Homologous recombination synthetic lethal inhibition of proliferation, DLD-1 BRCA2-/- (Cell Titre Glo 3D). The class given is cell-based. The note with it: for IC50: Homo sapiens. In a few lines:
as §1

Setting [1] is: DLD-1, proliferation, luminescence, second Prolif column (c6), taken as DLD-1 BRCA2 wt control, read-out: POLQ PD Prolif Lumin (converted).
Setting [2] is: DLD-1, proliferation, luminescence, taken as DLD-1 BRCA2-/-, read-out: POLQ PD Prolif Lumin (converted).
The mark [3] stands for this setting: DLD-1, second proliferation column (c6), DLD-1 BRCA2 wt control, read-out: POLQ PD Prolif Lumin (converted).
[4] abbreviates: DLD-1, first proliferation column (c5), DLD-1 BRCA2-/-, read-out: POLQ PD Prolif Lumin (converted).
The mark [5] stands for this setting: DLD-1, 168 h, DLD-1 BRCA2 wt cells, 7 days, read-out: POLQ PD Prolif Lumin DLD1 mean pIC50 (converted).
[6] abbreviates: DLD-1, 288 h, DLD-1 BRCA2−/− cells, 12 days, read-out: POLQ PD Prolif Lumin BRCA2 −/− mean pIC50 (converted).
The mark [7] stands for this setting: DLD-1, second proliferation column (c6), taken as DLD-1 BRCA2 wt, read-out: POLQ PD Prolif Lumin (converted).
[8] abbreviates: DLD-1, first proliferation column (c5), taken as DLD-1 BRCA2-/-, read-out: POLQ PD Prolif Lumin (converted).

The values that follow come from US20250195530A1, “POLQ INHIBITORS” (ASTRAZENECA AB, priority 2022, published 2025).

Where two headings read alike, the source gives them in different places.

In the case of `CC(CCOc1ccc(-c2nc3c(OC4(C)CC4)ncnc3n2Cc2ccccc2C#N)c(Cl)c1)C(=O)O` (racemic) [Example T400, 4-(3-chloro-4-(9-(2-cyanobenzyl)-6-(1-methylcyclopropoxy)-9H-purin-8-yl)phenoxy)-2-methylbutanoic acid], the results for the IC50 with DLD-1 cells (setting [1]) and in the assay on DLD-1 BRCA2−/− cells (setting [2]) were more than 10000 nM and 251 nM, respectively.

As to `Cc1c(Cl)ccnc1Cn1c(-c2ccc(OCCN3CCNCC3)cc2Cl)nc2c(OC3(C)CC3)ncnc21` [Example T525, 9-((4-chloro-3-methylpyridin-2-yl)methyl)-8-(2-chloro-4-(2-(piperazin-1-yl)ethoxy)phenyl)-6-(1-methylcyclopropoxy)-9H-purine], the IC50 was more than 10000 nM in the assay on DLD-1 cells (setting [3]) and 1260 nM with DLD-1 BRCA2−/− cells (setting [4]).

Consider `Cc1cc(C)nc(Cn2c(-c3ccc(OCCN4CCNCC4)cc3Cl)nc3c(OC4(C)CC4)ncnc32)c1` [Example T595, 8-(2-chloro-4-(2-(piperazin-1-yl)ethoxy)phenyl)-9-((4,6-dimethylpyridin-2-yl)methyl)-6-(1-methylcyclopropoxy)-9H-purine], for which the IC50 with DLD-1 cells (DLD-1, second proliferation column, DLD-1 BRCA2 wt control, read-out: POLQ PD Prolif Lumin (converted)) was more than 10000 nM; in the assay with DLD-1 BRCA2−/− cells (DLD-1, first proliferation column, DLD-1 BRCA2-/-, read-out: POLQ PD Prolif Lumin (converted)) it was 1260 nM.

Regarding `CC1(Oc2ncnc3c2nc(-c2ccc(OCCN4CCNCC4)cc2Cl)n3Cc2ccccn2)CC1` [Example E7, 8-(2-chloro-4-(2-(piperazin-1-yl)ethoxy)phenyl)-6-(1-methylcyclopropoxy)-9-(pyridin-2-ylmethyl)-9H-purine], the results for the IC50 in the assay with DLD-1 cells (setting [5]) and in the assay with DLD-1 BRCA2−/− cells (setting [6]) were more than 10000 nM and 1260 nM, respectively.

Turning to `CN1CCN(CCOc2ccc(-c3nc4c(OC5(C)CC5)ncnc4n3Cc3ncccn3)c(Cl)c2)CC1` [Example E6, 8-(2-chloro-4-(2-(4-methylpiperazin-1-yl)ethoxy)phenyl)-6-(1-methylcyclopropoxy)-9-(pyrimidin-2-ylmethyl)-9H-purine], the values for the IC50 in the assay on DLD-1 cells (setting [5]) and in the assay with DLD-1 BRCA2−/− cells (setting [6]) were more than 10000 nM and 1580 nM, respectively.

Consider `Cc1ccnc(Cn2c(-c3cccc(OCCCN(C)C)c3Cl)nc3c(OC4(C)CC4)ncnc32)c1` [Example T386, 3-(2-chloro-3-(6-(1-methylcyclopropoxy)-9-((4-methylpyridin-2-yl)methyl)-9H-purin-8-yl)phenoxy)-N,N-dimethylpropan-1-amine], for which the IC50 in the assay with DLD-1 cells (setting [7]) was more than 10000 nM; in the assay with DLD-1 BRCA2−/− cells (setting [8]), 100 nM.

In the case of `CC1(Oc2ncnc3c2nc(-c2ccc(OCCC(=O)O)cc2Cl)n3Cc2cccc(C(F)(F)F)c2)CC1` [Example T151, 3-(3-chloro-4-(6-(1-methylcyclopropoxy)-9-(3-(trifluoromethyl)benzyl)-9H-purin-8-yl)phenoxy)propanoic acid], the values for the IC50 in the assay on DLD-1 cells (setting [3]) and with DLD-1 BRCA2−/− cells (setting [4]) were more than 10000 nM and 398 nM, respectively.

Consider `CC1(Oc2ncnc3c2nc(-c2ccc(OCCN4CCN(S(=O)(=O)O)CC4)cc2Cl)n3Cc2cc(Cl)ccn2)CC1` [Example T380, 4-(2-(3-chloro-4-(9-((4-chloropyridin-2-yl)methyl)-6-(1-methylcyclopropoxy)-9H-purin-8-yl)phenoxy)ethyl)piperazine-1-sulfonic acid], for which the IC50 in the assay on DLD-1 cells (setting [7]) is more than 10000 nM; with DLD-1 BRCA2−/− cells (setting [8]), 7940 nM.

`CC(c1cc(Cl)ccn1)n1c(-c2ccc(OCCN3CCNCC3)cc2Cl)nc2c(OC3(C)CC3)ncnc21` (single isomer, unassigned; isomer 2) [Example S5, 8-(2-chloro-4-(2-(piperazin-1-yl)ethoxy)phenyl)-9-(1-(4-chloropyridin-2-yl)ethyl)-6-(1-methylcyclopropoxy)-9H-purine (Isomer 2)]: the IC50 with DLD-1 cells (setting [5]) is more than 10000 nM. Also, in the assay on DLD-1 BRCA2−/− cells (DLD-1 BRCA2−/− cells, 12 days), the “POLQ PD Prolif Lumin BRCA2 −/− mean pIC50” value was determined as 6.1.

Turning to `C[C@H](CCOc1ccc(-c2nc3c(OC4(C)CC4)ncnc3n2Cc2ccccc2C#N)c(Cl)c1)C(=O)O` [Example T402, (R)-4-(3-chloro-4-(9-(2-cyanobenzyl)-6-(1-methylcyclopropoxy)-9H-purin-8-yl)phenoxy)-2-methylbutanoic acid], the IC50 in the assay with DLD-1 cells (setting [1]) is more than 10000 nM; in the assay on DLD-1 BRCA2−/− cells (setting [2]) it was 398 nM.

Turning to `Cc1cnc(Cn2c(-c3ccc(OCCN4CCNCC4)cc3Cl)nc3c(OC4(C)CC4)ncnc32)s1` [Example L3, 2-((8-(2-chloro-4-(2-(piperazin-1-yl)ethoxy)phenyl)-6-(1-methylcyclopropoxy)-9H-purin-9-yl)methyl)-5-methylthiazole], the results for the IC50 with DLD-1 cells (setting [5]) and in the assay on DLD-1 BRCA2−/− cells (setting [6]) were more than 10000 nM and 398 nM, respectively.

For `Cc1ccnc(Cn2c(-c3ccc(OCCN4CCNCC4)cc3Cl)nc3c(OC4(C)CC4)ncnc32)c1F` [Example T504, 8-(2-chloro-4-(2-(piperazin-1-yl)ethoxy)phenyl)-9-((3-fluoro-4-methylpyridin-2-yl)methyl)-6-(1-methylcyclopropoxy)-9H-purine], the IC50 in the assay on DLD-1 cells (setting [3]) was more than 10000 nM; with DLD-1 BRCA2−/− cells (setting [4]), 2000 nM.

Turning to `CN1CCC(Oc2cccc(-c3nc4c(OC5(C)CC5)ncnc4n3Cc3ccccc3)c2Cl)CC1` [Example D9, 9-benzyl-8-(2-chloro-3-((1-methylpiperidin-4-yl)oxy)phenyl)-6-(1-methylcyclopropoxy)-9H-purine], the IC50 was 2000 nM with DLD-1 cells (setting [5]) and 158 nM with DLD-1 BRCA2−/− cells (setting [6]).

As for `CC(COc1cccc(-c2nc3c(OC4(C)CC4)ncnc3n2Cc2cccc(Cl)c2)c1Cl)CC(=O)O` (single isomer, unassigned) [Example T299, 4-(2-chloro-3-(9-(3-chlorobenzyl)-6-(1-methylcyclopropoxy)-9H-purin-8-yl)phenoxy)-3-methylbutanoic acid], the values for the IC50 in the assay on DLD-1 cells (setting [7]) and with DLD-1 BRCA2−/− cells (setting [8]) were more than 10000 nM and 79.4 nM, respectively.

In the case of `CNCCCOc1ccc(-c2nc3c(OC4(C)CC4)ncnc3n2Cc2cc(C)ccn2)c(Cl)c1` [Example T238, 3-(3-chloro-4-(6-(1-methylcyclopropoxy)-9-((4-methylpyridin-2-yl)methyl)-9H-purin-8-yl)phenoxy)-N-methylpropan-1-amine], the IC50 was more than 10000 nM with DLD-1 cells (DLD-1, DLD-1 BRCA2 wt control proliferation, column head only partly shown, read-out: POLQ PD Prolif Lumin (converted)) and 501 nM in the assay on DLD-1 BRCA2−/− cells (DLD-1, DLD-1 BRCA2-/- proliferation, column head only partly shown, read-out: POLQ PD Prolif Lumin (converted)).

For `COc1ccc(-c2nc3cc(OC(C)C)ccc3n2Cc2ccccc2)c(Cl)c1` [Example A12, 1-benzyl-2-(2-chloro-4-methoxyphenyl)-5-isopropoxy-1H-benzo[d]imidazole], the values for the IC50 in the assay with DLD-1 cells (setting [5]) and in the assay on DLD-1 BRCA2−/− cells (setting [6]) were more than 10000 nM and 2000 nM, respectively.

For `CC(CCOc1ccc(-c2nc3c(OC4(C)CC4)ncnc3n2Cc2cc(Cl)ccc2C#N)c(Cl)c1)C(=O)O` (racemic) [Example U9, 4-(3-chloro-4-(9-(5-chloro-2-cyanobenzyl)-6-(1-methylcyclopropoxy)-9H-purin-8-yl)phenoxy)-2-methylbutanoic acid], the IC50 with DLD-1 cells (DLD-1, DLD1 BRCA2 wt, mean, read-out: POLQ PD Prolif Lumin DLD1 mean pIC50 (converted)) is more than 10000 nM; in the assay with DLD-1 BRCA2−/− cells (DLD-1, DLD-1 BRCA2 −/−, mean, read-out: POLQ PD Prolif Lumin BRCA2 −/− mean pIC50 (converted)), 79.4 nM.

As to `CC1(Oc2ncnc3c2nc(-c2ccc(OCCN4CCNCC4)cc2Cl)n3Cc2ccccc2)CC1` [Example 6, 9-Benzyl-8-(2-chloro-4-(2-(piperazin-1-yl)ethoxy)phenyl)-6-(1-methylcyclopropoxy)-9H-purine], the IC50 with DLD-1 cells (setting [5]) was 3980 nM; in the assay on DLD-1 BRCA2−/− cells (setting [6]), 158 nM.

As for `Cc1ccnc(Cn2c(-c3ccc(C(=O)N4CCC4)cc3Cl)nc3c(OC4(C)CC4)ncnc32)c1` [Example T169, azetidin-1-yl(3-chloro-4-(6-(1-methylcyclopropoxy)-9-((4-methylpyridin-2-yl)methyl)-9H-purin-8-yl)phenyl)methanone], the IC50 was 10000 nM in the assay on DLD-1 cells (setting [3]) and 631 nM in the assay with DLD-1 BRCA2−/− cells (setting [4]).

`CC1(Oc2ncnc3c2nc(-c2ccc(OCCN4CCNCC4)cc2Cl)n3Cc2nccs2)CC1` [Example K4, 2-((8-(2-chloro-4-(2-(piperazin-1-yl)ethoxy)phenyl)-6-(1-methylcyclopropoxy)-9H-purin-9-yl)methyl)thiazole]: the IC50 with DLD-1 cells (setting [5]) is more than 10000 nM; in the assay with DLD-1 BRCA2−/− cells (setting [6]) it was 3980 nM.

As to `CN1CCN(C(=O)COc2ccc(-c3nc4c(OC5(C)CC5)ncnc4n3Cc3ccccc3)c(Cl)c2)CC1` [Example C9, 2-(4-(9-benzyl-6-(1-methylcyclopropoxy)-9H-purin-8-yl)-3-chloro-phenoxy)-1-(4-methyl-piperazin-1-yl)ethan-1-one], the IC50 was more than 10000 nM with DLD-1 cells (setting [5]) and 126 nM with DLD-1 BRCA2−/− cells (setting [6]).

Regarding `CN1CCN(CCOc2ccc(-c3nc4c(OC5(C)CC5)ncnc4n3Cc3ccccc3)c(C#N)c2)CC1` [Example H8, 2-(9-benzyl-6-(1-methylcyclopropoxy)-9H-purin-8-yl)-5-(2-(4-methylpiperazin-1-yl)ethoxy)benzonitrile], the IC50 with DLD-1 cells (setting [5]) is more than 10000 nM; in the assay on DLD-1 BRCA2−/− cells (setting [6]), 398 nM.

On to `CC1(Oc2ncnc3c2nc(-c2ccc(OCCN)cc2Cl)n3Cc2ccccc2)CC1` [Example D23, 2-(4-(9-benzyl-6-(1-methylcyclopropoxy)-9H-purin-8-yl)-3-chlorophenoxy)ethan-1-amine], for which the IC50 was 7940 nM in the assay with DLD-1 cells (setting [5]) and 794 nM with DLD-1 BRCA2−/− cells (setting [6]).
